Measurements: patent publication EP1785722A1, “Microbial, viral and mammalian susceptibility to agents that affect cell growth and metabolism, and compatibility of compounds” (Stratos Bio Ltd., priority 2005, dated 2007)

Experiments:
Micrococcus flavus [1] = assay: MIC / MBC against Micrococcus flavus; type: cell-based; conditions: as printed in table heads
B. pumilus = assay: MIC determination against B. pumilus; type: cell-based, Bacillus pumilus
Description: (§1) However when the concentration of organisms was 5.1 x 10^6 cfu/ml which was the inoculum used in the microcalorimetric incubations the MIC was increased to 2 µg/ml; the effect was also bacteriostatic.

Bacillus pumilus = assay: Flow microcalorimetry (p-t curves) of growing Bacillus pumilus; type: cell-based
Description: (§2) • a) For B. pumilus a simple glucose/salts medium was employed with a glucose concentration of 0.1 % w/v. • b) For Bord. bronch. The above salts medium was used with the addition of nicotinic acid, methionine and glutamic acid. Glutamic acid was used at a concentration of 0.2% w/v. • c) For M. flavus a semidefined medium was employed, using the same salts as a B. pumilus but also Na-citrate, biotin and protease peptone. In the calorimeter a concentration of 0.4% protease peptone was used. All medium constituents (except protease) were analytical reagents. The calorimetric medium was therefore a final concentration of 100ml of either solution a, b or c freshly autoclaved for 15 mins exactly at 121°C, 151b/sq inch. Glucose was added to the appropriate solution after autoclaving.
(§3) To the vertical face of the vessel close to its base, equidistantly spaced around the circumference, ports were fitted for an oxygen electrode and for sampling/inoculation. The fermenter was closed with a flat flanged glass lid which had five ports accommodating respectively, gas inlet tube, gas exhaust (via air condenser), inlet and outlet flow-lines to and from the calorimeter. The fermenter and lid was sealed with a p.t.f.e. gasket and clamped with a metal clip. The fermenter was placed on a magnetic stirring unit in a water jacket which allowed circulation of the thermostatically controlled water at 30°C or 37°C. The fermenter which contained a Teflon coated magnetic stirring bar, was sterilised by autoclaving.
(§4) For a typical calorimetric incubation the medium was passed through the calorimetric vessel at the same flow rate and temperature as those used in the experiment to establish a steady baseline deflection. The following operations then took place to a strict timetable. The liquid nitrogen stored ampoule was thawed at 38°C for 3 min and then stirred for 20 sec on a whirlimixer. The bacterial suspension (0.5-1.5ml) volumes was inoculated into the medium (100ml) two minutes after completion of thawing. A Gilson automatic pipette was used for inoculation. The calorimeter inlet flow-line was placed in the incubation medium 30 seconds after inoculation. The flowing incubation medium reached the calorimetric vessel two min after inlet flow-line insertion. At this time the recording of the p-t curves was started. Eight min after inoculation the outflow from the calorimeter was returned to the fermenter (after the "baseline" medium had run to waste but before the inoculated medium ran to waste) thus making a closed system. Aeration was started as soon as the inlet tube was inserted in the fermenter. Microbiological purity of the culture was checked by plating out a sample of the culture at the end of each incubation on nutrient agar (lab M).
(§5) The output of calorimetric experiments is a plot of power (energy evolution per unit of time) as a function of time. The unit of power (p) is the Watt (W) and the unit of time is the hour (h). In some experiments seconds (s) were used as time unit.
as §1

[2] = test system: Bordetella Bronchiseptica; assay: Flow microcalorimetry (p-t curves) of growing Bordetella bronchiseptica; type: cell-based
Description: as §2, §3, §4, §5
After successful freezing of Bord. bronch p-t curves for growth in different concentrations of glutamic acid from 0.1%-0.5% were obtained. It was concluded that a medium containing 0.2% glutamic acid would be sufficient for a good deflection in the microcalorimeter minimising the possibility of the bacteria clogging in the microcalorimetric cell or in the teflon tubes leading to and from the microcalorimetric cell. A pH of 7 was used in all the following experiments as this is the optimum pH for polymyxin - lipid binding.
It was of vital importance to maintain a constant oxygen tension; this was achieved by using saturation concentrations of oxygen. It was decided to use the height of the small peak as full scale deflection for the antibiotic assay as the increase in power was exponential up to this point and the peak occurred at a convenient time. This choice of assay point was empirical. The inoculum was 1.1 ± 0.06 x 10^8 cfu/ml for all the microclalorimetric incubations. […]

Micrococcus flavus [3] = assay: Flow microcalorimetry (p-t curves) of growing Micrococcus flavus; type: cell-based; conditions: single antibiotic at its MIC (4 ug/ml Neo; 2ug/ml POLB)
Description: as §2, §3, §4, §5
This point occurred at an increase in deflection of 29.5% from the baseline value.

[4] = test system: Bordetella Bronchiseptica; assay: MIC / MBC against Bordetella bronchiseptica; type: cell-based
E. coli = assay: MIC / MBC against E. coli; type: cell-based
respiring E.coli = assay: Microcalorimetry of respiring E. coli in glucose buffer; type: cell-based
Description: E.coli was suspended in 10% DMSO prior to freezing and the viable counts were for batch 1: pre-freeze: 4.0 ± 0.6_ x 10^10 cfu/ml and post -freeze 2.0 ± 0.44 x 10^10 cfu/ml and for batch 2: pre-freeze: 3.45 ± 0.58 x 10^10 cfu/ml and post-freeze 2.93 ± 0.43 x 10^10 cfu/ml. The freezing rate for both batches was 20°C/min the survival rate was 50% for batch 1 and 85% for batch 2. These differences may have been due to batch 1 being kept for 24h at 4°C before being frozen.
The respiration experiments were carried out in glucose buffer at different pH. The respiration curves obtained from batch 1 (inoculum 2 x 10^10 cfu/ml) and batch 2 Inoculum 3.2 x 10^10 cfu/ml) were essentially similar and a mean was used as a reference). The respiration experiments were carried out at pH 7 for polymyxin and Znbacitracin and at pH 8 for neomycin. No differences in p-t control curves could be observed at pH 7 or pH 8.
The p-t curves rose and reached a plateau as has been observed for respiration of yeasts and some 20 min later fell to a lower plateau value. Prior incubation of the cells in the buffered glucose for periods up to 20 min before presentation to the calorimeter could reduce or entirely remove this effect.

[5] = 0.25 ug/ml added at 0 % of p-t curve

Question: With `NC[C@@H]1O[C@H](O[C@H]2[C@@H](O)[C@H](O[C@@H]3[C@@H](O)[C@H](N)C[C@H](N)[C@H]3O[C@H]3O[C@H](CN)[C@@H](O)[C@H](O)[C@H]3N)O[C@@H]2CO)[C@H](N)[C@@H](O)[C@@H]1O.O=S(=O)(O)O` [neomycin sulphate, Neomycin sulphate] as the molecule, how does the MIC (Micrococcus flavus [1]) read?
Answer: 4 µg/mL

Question: And the “effect at MIC” value (B. pumilus; 5.1 x 10^6 cfu/ml)?
Answer: bacteriostatic

Question: What about the MIC (B. pumilus; 5.1 x 10^6 cfu/ml, inoculum used in the microcalorimetric incubations) of the same molecule?
Answer: 2 µg/mL

Question: What about the MIC (B. pumilus; inoculum of 1x10^5 cfu/ml) of the same molecule?
Answer: 0.1 µg/mL

Question: What about the “effect at MIC” value (B. pumilus; inoculum of 1x10^5 cfu/ml) of the same molecule?
Answer: bacteriostatic

Question: And the MIC (B. pumilus; listed as NEO)?
Answer: 1 µg/mL

Question: What about the Comments (Bacillus pumilus; [5]) of the same molecule?
Answer: No effect

Question: What about the “Observed effect on p-t curves Related to standard growth curve” value (shortened to “Observed effect on p-t curves Related”) (Bacillus pumilus; [5]) of the same molecule?
Answer: 1X standard curve

Question: What about the Comments (Bacillus pumilus; 0.5 ug/ml added at 0 % of p-t curve) of the same molecule?
Answer: Inhibition of RNA synthesis

Question: And the Comments (Bacillus pumilus; 1 ug/ml added at 10 % of p-t curve)?
Answer: Growth promoting effect potential stimulation of RNA synthesis

Question: And the “Observed effect on p-t curves Related” value (Bacillus pumilus; 1 ug/ml added at 10 % of p-t curve, at 11 h)?
Answer: 1.2 X signal at 11 h

Question: And the Comments (Bacillus pumilus; 1 ug/ml added at 15 % of p-t curve)?
Answer: Growth promoting effect potential stimulation of RNA synthesis

Question: What about the “Observed effect on p-t curves Related” value (Bacillus pumilus; 1 ug/ml added at 15 % of p-t curve, at 11 h) of the same molecule?
Answer: 1.2 X signal at 11 h

Question: And the Comments (Bacillus pumilus; 1 ug/ml added at 25 % of p-t curve)?
Answer: Growth promoting effect potential stimulation of RNA synthesis

Question: What about the “Observed effect on p-t curves Related” value (Bacillus pumilus; 1 ug/ml added at 25 % of p-t curve, at 11 h) of the same molecule?
Answer: 5X signal at 11 h

Question: And the Comments (Bacillus pumilus; 2 ug/ml added at 10 % of p-t curve)?
Answer: Growth promoting effect potential stimulation of RNA synthesis

Question: And the “Observed effect on p-t curves Related” value (Bacillus pumilus; 2 ug/ml added at 10 % of p-t curve, at 11 h)?
Answer: 1.2 Xsignal at 11 h

Question: What about the power output (Bacillus pumilus; 0.5 and 1 x MIC (1-2 µg/ml) added after an increase of 10% of full scale deflection) of the same molecule?
Answer: the same effect was observed

Question: And the power output (Bacillus pumilus; 0.5 x MIC (1µg/ml) added after a 25% increase power output)?
Answer: massive power output 2-4h after addition

Question: What about the Comments (Bacillus pumilus; > 2 ug/ml added at 10 % of p-t curve) of the same molecule?
Answer: Inhibition of RNA synthesis Possible to achieve linear dose-response at 7 hours after addition of antibiotic to the bacterial culture, after 11 hours heat-out put levels off b ut do not return to baseline indicating a bacteriostatic effect and maximum inhibition of RNA synthesis

Question: What about the “Observed effect on p-t curves Related” value (Bacillus pumilus; > 2 ug/ml added at 10 % of p-t curve, at 11 h) of the same molecule?
Answer: 0.75 or less at 11 h

Question: And the power output (Bacillus pumilus; added after an increase in power output of 15% of full scale deflection)?
Answer: only marginally larger than that observed for the normal growth curve

Question: What about the power output (Bacillus pumilus; higher concentrations of antibiotic) of the same molecule?
Answer: a decrease in power output was observed

Question: And the “concentrations at which an increased heat output can be observed” value (Bacillus pumilus; organism not given)?
Answer: < 1 µg/mL

Question: And the “Observed effect on p-t curves” value ([2]; single antibiotic at its MIC (0.25ug/ml Neo; 100ug/ml ZNB), added at 50 % of p-t curve)?
Answer: No effect on p-t curve

Question: And the “Observed effect on p-t curves” value (Micrococcus flavus [3])?
Answer: No effect on p-t curve

Question: What about the MIC ([4]; as printed in table heads) of the same molecule?
Answer: 0.25 µg/mL

Question: What about the MBC (E. coli; as printed in table head) of the same molecule?
Answer: 5900 µg/mL

Question: And the MIC (E. coli; as printed in table head)?
Answer: 5900 µg/mL

Question: What about the MIC (E. coli; text) of the same molecule?
Answer: 500 µg/mL

Question: And the effect on power (respiring E.coli; Fig. 16)?
Answer: an increase in power

Question: What about the Comments (respiring E.coli; NEO 500 ug/ml) of the same molecule?
Answer: Consistent with increased rate of RNA synthesis

Question: What about the “Observed effect on p-t curves” value (respiring E.coli; NEO 500 ug/ml, pH 8) of the same molecule?
Answer: Increase in heat output

Question: And the heat output (respiring E.coli; all concentrations)?
Answer: increased heat output

Question: And the Linear dose-response between (respiring E.coli; table)?
Answer: 10 to 100 µg/mL

Question: And the “linear relationship between dose and the reciprocal of increase in response from the control curve” value (respiring E.coli; text)?
Answer: 20 to 100 µg/mL

Question: Which results are given for Polymyxin B sulphate?
Answer: MIC (Micrococcus flavus [1]): 2 µg/mL; MIC (B. pumilus; as printed in table heads): 20 µg/mL; time until growth was inhibited completely (Bacillus pumilus; 20ug/ml POLB, pH 8.00): Within 9 hours growth was inhibited completely; concentration above which the declines were identical [2]: > 3.5 x MIC; time to observable response after addition [2]: ≤ 5 min; Observed effect on p-t curves ([2]; 0.07 ug/ml added at 18 % of p-t curve): No effect on growth curve; response of p-t curve ([2]; 0.033 x MIC (0.07 µg/ml)): no response to the antibiotic was observed; Comments ([2]; 0.35 -2 ug/ml added at 18 % of p-t curve): All curves return to baseline confirmed bacteriocidal action; Observed effect on p-t curves ([2]; 0.35 -2 ug/ml added at 18 % of p-t curve, CV 2.5%): Linear log dose response 10 min after addition of antibiotic CV 2.5%; time to sharp decline in heat output after addition ([2]; 0.5 x MIC): ≤ 10 min; mode of action ([2]; at MIC values): bactericidal; Observed effect on p-t curves (Micrococcus flavus [3]): Slightly delayed peak; MBC ([4]; as printed in table head): Ug/ml MIC & MBC 2 ug/ml; MIC ([4]; as printed in table heads): Ug/ml MIC & MBC 2 ug/ml; MIC ([4]; listed as POL): 2 µg/mL; MBC ([4]; text): 2 µg/mL; MIC ([4]; text): 2 µg/mL; MBC (E. coli; as printed in table head): 6.3 µg/mL; MIC (E. coli; as printed in table head): 6.3 µg/mL; MBC (E. coli; text): 6.3 µg/mL; MIC (E. coli; text): 6.3 µg/mL; sensitivity of the assay (respiring E.coli): 3 µg/mL; effect on p-t curve (respiring E.coli; Fig. 15): reduced the initial peak height and thereafter the p-t curve returned to baseline; Comments (respiring E.coli; POLB 6.3 ug/ml): Bacteriocidal action demonstrated; time to return to baseline (after reduced height of p-t curve initially) (respiring E.coli; POLB 6.3 ug/ml, pH 7): Reduced height of p-t curve initially and returned to baseline within 1 hour
